This test has as its system Myocaridal infarct size. The experiment in a line: Myocardial infarct size after 90 minute LAD occlusion and reperfusion in anaesthetized dogs (ex vivo TTC / Evans blue dual perfusion). The arrangement: species or system Male beagle dogs. To be noted: for % Area at Risk * Infarcted: 10 mg/kg intravenously over five minutes beginning fifteen minutes prior to reperfusion, 90 minute LAD occlusion, infarct quantified 24 hours after occlusion, means ± standard error.

Protocol: Male beagle dogs (10-12 kg) were anaesthetized with pentobarbital sodium, intubated, and ventilated with room air via a Harvard respirator. Catheters for infusion and arterial blood pressure measurements were implanted in the left jugular vein and left carotial artery. A thoracotomy was performed at the fourth intercostal space, the heart suspended in a percardial cradle and the left anterior descending artery (LAD) isolated just below the first major diagonal branch. An electromagnetic flow probe was placed on LAD. A 90 minute occlusion of the LAD was produced by placing a snare of 1/0 silk sutre distel to the flow probe. Treatment was initiated intravenously fifteen minutes prior to release of this snare occlusion and continued for 45 minutes after release. The thoracotomy was closed, and the animals were allowed to recover from the surgical procedures. The animals were reanaesthetized 24 hours after the occlusion, and the flow in the LAD reassessed. Then the heart was removed for post mortem quantification of infarct size.
Three groups of dogs were evaluated. Group 1 consisted of saline controls. Group 2 were administered allopurinol and group 3 were administered oxypurinol. Allopurinol and oxypurinol were dissolved, separately, in O.I.N. sodium hydroxide and back-titrated to pH 9.3. The formulations were adminstered intravenously over five minutes beginning fifteen minutes prior to reperfusion.
Myocaridal infarct size was quantified by an ex vivo dual reperfusion technique. Cannulas were inserted into the LAD immediately distel to the site of occlusion and into the aorta above the coronary ostia. The LAD coronary bed that was perfused with 1.5% triphenyl tetrazolium hydrochloride (TTC) in 0.02 M potassium phosphate buffer, pH 7.4. The aorta was perfused in a retrograde manner with 0.5% Evans blue dye. Both regions ere perfused with their respective stains at a constant pressure of 100 mm mercury for five minutes. The heart was cut into 8 mm slices perpendicular to the apex-base axis. The area of the left ventrical at risk of infarction due to aatomical dependence on the LAD for blood flow is identified by the lack of Evans blue in this region. The region of infarcted myocardium within the area was demarcated by the lack of staining of the tissue when perfused with TTC due to a loss of dehydrogenase enzymes.
The transverse ventricular sections were traced carefully on to clear acrylic overlays to provide a permanent record of infarcted methology and to allow planimetric confirmation of infarct size. Ventricular sections then were trimmed of right ventricular muscle, valvular, and fatty tissue. Total left ventricular, area at risk, and infarct was separated by careful dissection and weighted. Infarct size was expressed as a percentage of the anatomic area at risk. […]

In the case of `Oc1ncnc2[nH]ncc12` [Allopurinol], the “% Area at Risk * Infarcted” value came out at 43.1 ± 6.1%.
`O=c1[nH]c(=O)c2c[nH]nc2[nH]1` [Oxypurinol, 4,6-dihydroxypyrazola(3,4-d)pyrimidine]: the “% Area at Risk * Infarcted” value was determined as 19.0 ± 1.7%. Also, the “Reduction of area at risk (infarcted) compared with saline and allopurinol” value (10 mg/kg i.v. fifteen minutes prior to reperfusion, significance criterion p less than 0.05 (ANOVA, Bonferroni)) is “significantly reduced”. For the same compound, the “Reducing cellular injury when administered after ischemia (and before reperfusion)” value (administered after ischemia and before reperfusion, summary statement) was “effective”.
